What was measured:
[1] = system: RXR; experiment: Gal4 hybrid reporter gene assays, competition with bexarotene / antagonist UVI3003 (isoform not specified); assay type: cell-based, human; conditions: bexarotene 0.1 µM or 1 µM; for effect on bexarotene-induced RXR activation, low concentration: fatty acid 10 µM; for effect on bexarotene-induced RXR activation, higher concentration: fatty acid 100 µM, not statistically significant for all fatty acids on all isoforms
Experimental: (§1) The Gal4 hybrid reporter gene assays for RXRα, RXRβ and RXRγ were performed as described previously using the Gal4-fusion receptor plasmids pFA-CMV-hRXRα-LBD (NR2B1, UniProt entry: P19793, aa 225–462), pFA-CMV-hRXRβ-LBD (NR2B2, UniProt entry: P28702-1, aa 294–533) and pFA-CMV-hRXRγ-LBD (NR2B3, UniProt entry: P48443-1, aa 229–463), which code for the hinge region and LBD of the canonical RXR isoform. pFR-Luc (Stratagene, San Diego, CA, USA) as the reporter plasmid and pRL-SV40 (Promega, Madison, WI, USA) as the internal control were used. HEK293T cells were grown in DMEM high-glucose medium (supplemented with 10% fetal calf serum (FCS), sodium pyruvate (1 mM), penicillin (100 U/mL) and streptomycin (100 μg/mL)) at 37 °C and 5% CO2, and seeded in 96-well plates (3.0 × 10^4 cells/well) on the day before transfection. Right before transfection, medium was changed to Opti-MEM without supplements and cells were transiently transfected using the Lipofectamine LTX reagent (Invitrogen, Carlsbad, CA, USA) according to the manufacturer’s protocol with pFR-Luc (Stratagene), pRL-SV40 (Promega) and the respective pFA-CMV-hRXR-LBD clone. After 5 h of incubation, medium was changed to Opti-MEM (supplemented with penicillin (100 U/mL) and streptomycin (100 μg/mL)) additionally containing 0.1% DMSO and the respective test compounds or 0.1% DMSO alone as the untreated control. After overnight incubation (12–14 h), cells were assayed for luciferase activity using the Dual-Glo luciferase assay system (Promega) according to the manufacturer’s protocol on a Tecan Spark M10 luminometer (Tecan Deutschland GmbH, Crailsheim, Germany). Each sample was tested in at least three biologically independent repeats in duplicates. Data were normalized for transfection efficiency and cell growth by division of firefly luciferase data by Renilla luciferase data and multiplying by 1000 to obtain relative light units (RLUs). Fold activation denotes the mean RLU of test compounds at a respective concentration divided by the mean RLU of untreated control. […]

[2] = target: T1, RXRβ (Homo sapiens, UniProt P28702); experiment: Gal4 hybrid reporter gene assay RXRβ; assay type: cell-based; conditions: HEK293T; at 100 µM concentrations and above
T1 construct: pFA-CMV-hRXRβ-LBD (NR2B2, UniProt entry: P28702-1, aa 294–533); expressed in transfected cells; host or cells: HEK293T
T1 sequence (P28702 294-533): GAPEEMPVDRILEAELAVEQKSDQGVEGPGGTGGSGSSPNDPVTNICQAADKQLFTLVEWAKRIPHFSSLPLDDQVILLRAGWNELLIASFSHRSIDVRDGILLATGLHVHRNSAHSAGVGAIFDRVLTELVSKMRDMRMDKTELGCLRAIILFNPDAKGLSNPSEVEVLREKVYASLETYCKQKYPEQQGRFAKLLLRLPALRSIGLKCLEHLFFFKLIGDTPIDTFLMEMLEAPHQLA
Experimental: as §1

[3] = target: T2, RXRα (Homo sapiens, UniProt P19793); experiment: Gal4 hybrid reporter gene assay RXRα; assay type: cell-based; conditions: HEK293T; at 100 µM concentrations and above
T2 construct: pFA-CMV-hRXRα-LBD (NR2B1, UniProt entry: P19793, aa 225–462); expressed in transfected cells; host or cells: HEK293T
T2 sequence (P19793 225-462): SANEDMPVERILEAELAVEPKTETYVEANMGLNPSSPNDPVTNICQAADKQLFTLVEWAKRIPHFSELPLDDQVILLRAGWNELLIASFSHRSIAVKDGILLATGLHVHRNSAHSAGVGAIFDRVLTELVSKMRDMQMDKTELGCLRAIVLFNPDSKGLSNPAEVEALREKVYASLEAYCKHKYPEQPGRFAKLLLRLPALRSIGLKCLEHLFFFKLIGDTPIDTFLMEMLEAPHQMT
Experimental: as §1

Structure (SMILES) | effect on bexarotene-induced RXR activation, low concentration [1] | effect on bexarotene-induced RXR activation, higher concentration [1] | RXRβ activation in Gal4 hybrid reporter gene assay [2] | RXRα activation in Gal4 hybrid reporter gene assay [3]
CCCCCCCCCCCCCC(=O)O [MA, myristic acid] | tendency to further promote RXR activation | weak competitive behavior | activated | activated
CCCCCCCCCCCCCCCC(=O)O [PA, palmitic acid] | tendency to further promote RXR activation | weak competitive behavior | activated | activated
CCCCCCCCCCCCCCCCCC(=O)O [SA, stearic acid] | tendency to further promote RXR activation | weak competitive behavior | activated | activated

Reference: PMC7697888, “Comprehensive Set of Tertiary Complex Structures and Palmitic Acid Binding Provide Molecular Insights into Ligand Design for RXR Isoforms” (International Journal of Molecular Sciences, 2020)
